Laboratory results: PubChem BioAssay AID256 (DTP/NCI, 2004)
Toxic doses and inconclusive results are not listed. The calls were made as follows: active = survival T/C of 150% or more; inactive = T/C below 125% in these data.

System: CD2F1 mice, L1210 leukemia ip, survival T/C
Assay: NCI In Vivo Anticancer Drug Screen. Data for tumor model L1210 Leukemia (intraperitoneal) in CD2F1 (CDF1) mice
Settings: higher = longer survival
How it was run: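 Each value reflects a quotient of treated over vehicle control outcomes in mice with a transplanted tumor.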

[1] = endpoint: mean survival time, dose: 100.0 mg/kg/injection, schedule: Q04DX003 (ip), vehicle: saline
[2] = endpoint: mean survival time, dose: 100.0 mg/kg/injection, schedule: Q01DX001 (ip), vehicle: saline
[3] = endpoint: mean survival time, dose: 200.0 mg/kg/injection, schedule: Q01DX001 (ip), vehicle: saline
[4] = endpoint: mean survival time, dose: 400.0 mg/kg/injection, schedule: Q01DX001 (ip), vehicle: saline

Measured: T/C

N#CN=C([S-])[S-].N#CN=C([S-])[S-].[Cu]
inactive: endpoint: mean survival time, dose: 12.5 mg/kg/injection, schedule: Q04DX003 (ip), vehicle: acetone 93 % of control | endpoint: mean survival time, dose: 25.0 mg/kg/injection, schedule: Q04DX003 (ip), vehicle: acetone 94 % of control

COC(=O)C(=O)c1ccccc1
inactive: [1] 96 % of control | endpoint: mean survival time, dose: 200.0 mg/kg/injection, schedule: Q04DX003 (ip), vehicle: saline 102 % of control | endpoint: mean survival time, dose: 400.0 mg/kg/injection, schedule: Q04DX003 (ip), vehicle: saline 103 % of control

CC1=NNC2c3ccccc3-c3ccccc3N2C1 (stereo not drawn)
inactive: [2] 94 % of control | [3] 93 % of control | [4] 98 % of control

O=C1c2ccccc2C(=O)N1OCCCN1C(=O)c2ccccc2S1(=O)=O
inactive: [2] 96 % of control | [3] 100 % of control | [4] 100 % of control

CCOC(=O)Nc1cc(NC(C)CCCN(CC)CC)c2ncc(-c3ccccc3)nc2n1 (stereo not drawn) (tested in a mixture with another compound)
inactive: endpoint: mean survival time, dose: 25.0 mg/kg/injection, schedule: Q01DX009 (ip), vehicle: saline 89 % of control | endpoint: mean survival time, dose: 25.0 mg/kg/injection, schedule: Q04DX003 (ip), vehicle: saline 98 % of control | endpoint: mean survival time, dose: 50.0 mg/kg/injection, schedule: Q01DX009 (ip), vehicle: saline 94 % of control | endpoint: mean survival time, dose: 50.0 mg/kg/injection, schedule: Q04DX003 (ip), vehicle: saline 98 % of control | endpoint: mean survival time, dose: 100.0 mg/kg/injection, schedule: Q01DX009 (ip), vehicle: saline 95 % of control | [1] 108 % of control

CC1(C)N=C(N)N=C(N)N1c1ccc(CCc2ccccc2)cc1
inactive: endpoint: mean survival time, dose: 12.5 mg/kg/injection, schedule: Q01DX009 (ip), vehicle: saline with Tween-80 95 % of control | endpoint: mean survival time, dose: 25.0 mg/kg/injection, schedule: Q01DX009 (ip), vehicle: saline with Tween-80 87 % of control

O=P1(NCCCl)OC(c2ccccc2)=CCN1CCCl (stereo not drawn)
inactive: endpoint: median survival time, dose: 31.25 mg/kg/injection, schedule: Q01DX001 (ip), vehicle: distilled water + Tween-80 102 % of control | endpoint: median survival time, dose: 62.5 mg/kg/injection, schedule: Q01DX001 (ip), vehicle: distilled water + Tween-80 97 % of control | endpoint: median survival time, dose: 125.0 mg/kg/injection, schedule: Q01DX001 (ip), vehicle: distilled water + Tween-80 97 % of control | endpoint: median survival time, dose: 250.0 mg/kg/injection, schedule: Q01DX001 (ip), vehicle: distilled water + Tween-80 101 % of control | endpoint: median survival time, dose: 500.0 mg/kg/injection, schedule: Q01DX001 (ip), vehicle: distilled water + Tween-80 93 % of control

CN1CCC(c2ccccc2)c2ccccc21 (stereo not drawn)
inactive: endpoint: mean survival time, dose: 50.0 mg/kg/injection, schedule: Q04DX003 (ip), vehicle: other 97 % of control | endpoint: mean survival time, dose: 100.0 mg/kg/injection, schedule: Q04DX003 (ip), vehicle: other 100 % of control | endpoint: mean survival time, dose: 200.0 mg/kg/injection, schedule: Q04DX003 (ip), vehicle: other 100 % of control | endpoint: mean survival time, dose: 400.0 mg/kg/injection, schedule: Q04DX003 (ip), vehicle: other 100 % of control

CON(C)CC(O)c1ccccc1 (stereo not drawn)
inactive: endpoint: mean survival time, dose: 100.0 mg/kg/injection, schedule: Q04DX003 (ip), vehicle: saline with Tween-80 94 % of control | endpoint: mean survival time, dose: 200.0 mg/kg/injection, schedule: Q04DX003 (ip), vehicle: saline with Tween-80 92 % of control

C=CCOP(=O)(OCC=C)C(Cl)(Cl)Cl
inactive: endpoint: mean survival time, dose: 75.0 mg/kg/injection, schedule: Q01DX001 (ip), vehicle: other 109 % of control | endpoint: mean survival time, dose: 150.0 mg/kg/injection, schedule: Q01DX001 (ip), vehicle: other 97 % of control | endpoint: mean survival time, dose: 300.0 mg/kg/injection, schedule: Q01DX001 (ip), vehicle: other 109 % of control
